Source: ChEMBL document CHEMBL1268873, “Nitrile-containing pharmaceuticals: efficacious roles of the nitrile pharmacophore” (J Med Chem, 2010)
≈ marks a conversion by molar mass, not a printed value.

Assays:
KB = test: Cytotoxicity against human KB cells; type: functional, cell-based
L1210 = test: Cytotoxicity against mouse L1210 cells; type: functional, cell-based; settings: for IC50: Mus musculus, L1210
[1] = Inhibition of HIV RT; set-up: species or system Human immunodeficiency virus

SMILES	IC50 (KB) [µg/mL]	IC50 (L1210) [µg/mL]	IC50 [1] [nM]	IC5 (L1210) [ng/mL]
COc1cc([C@@H]2c3cc4c(cc3[C@@H](O[C@@H]3O[C@@H]5CO[C@H](C)O[C@H]5[C@H](O)[C@H]3O)[C@H]3COCC23)OCO4)cc(OC)c1OC (stereo not given in full)	0.308 (≈ 0.523 µM)	0.155 (≈ 0.263 µM)		
CC(C)c1nc(COC(N)=O)n(Cc2ccncc2)c1Sc1cc(Cl)cc(Cl)c1 [CAPRAVIRINE]			93	
COc1cc([C@@H]2c3cc4c(cc3[C@@H](C(=O)O)[C@H]3COCC23)OCO4)cc(OC)c1OC (stereo not given in full)	10 (≈ 23.3 µM)	0.164 (≈ 0.383 µM)		
CCc1nn(CCO)c(CC)c1Oc1cccc(C#N)c1			350	
COc1cc([C@@H]2c3cc4c(cc3[C@@H](C#N)[C@H]3COCC23)OCO4)cc(OC)c1OC (stereo not given in full)	0.155 (≈ 0.379 µM)			3.48
Cc1c(Oc2cc(Cl)cc(Cl)c2)c(C(C)C)nn1CCO			560	
CCc1nn(CCO)c(CC)c1Oc1cc(C#N)cc(C#N)c1 [LERSIVIRINE]			119	
